In publication PMC7794397, “Curbing gastrointestinal infections by defensin fragment modifications without harming commensal microbiota” (Communications Biology, 2021):
Where “and” joins values, the source holds several entries; their conditions need not be identical. Identical values can stand only once. Like-named read-outs stand apart in the source and are kept apart here. Residues, ends and D or L forms follow the SMILES beside them. *: point of attachment. Palmitoyl = CCCCCCCCCCCCCCCC(=O)*; AEEA = NCCOCCOCC(=O)O

Columns and labels:
S. aureus NCTC8325 [1] = assay: Bacterial membrane potential (DiOC2(3)); format: cell-based; details: 30 min of treatment
Protocol: For determination of membrane potential changes, S. aureus NCTC8325 was grown to log-phase in LB + 0.1% glucose, harvested and the optical density at 600 nm (OD600) was adjusted to 0.5. Bacteria were incubated with 30 µM 3,3′-diethyloxacarbocyanine iodide (DiOC2(3), Invitrogen™) for 15 min in the dark and treated with serial peptide concentrations for 30 min. The protonophore carbonyl cyanide m-chlorophenyl hydrazone (CCCP, Sigma Aldrich) was used as a positive control and DMSO or 0.01% acetic acid as negative controls. Fluorescence was measured at an excitation wavelength of 485 nm and two emission wavelengths, 530 nm (green) and 630 (nm) red, using a microplate reader (Tecan, Switzerland).

[2] = Oral tolerance test (safety) in mice; format: in vivo, C57BL/6N mice; details: for Creatinin / GOT: serum; for Creatinin / GOT / Bodyweight loss: individual animals
Source text: C57BL/6N mice were generated and maintained (including breeding and housing) at the animal facilities of the Helmholtz Centre for Infection Research (HZI) under enhanced specific pathogen-free (SPF) conditions. Animals used in the experiments were gender and age matched. Female and male mice with an age of 8–12 weeks were used. Sterilized food and water ad libitum was provided. Mice were kept under a strict 12-h light cycle (lights on at 7:00 am and off at 7:00 pm) and housed in groups of two to six mice per cage. All mice were euthanized by asphyxiation with CO2 and cervical dislocation. All animal experiments were performed in agreement with the local government of Lower Saxony, Germany (approved permission No. 33.19-42502-04-18/2499).
Age- and gender-matched mice received two doses of peptides (0, 125 µg or 250 µg) solved in 100 µl PBS orally per day. Bodyweight and appearance were recorded. The following day, mice were sacrificed and stomach, kidney, spleen, liver, small intestine, cecum, and colon were removed for histological scoring. Around 1 ml of blood was taken from the heart to measure inflammatory markers, including creatinine in the kidney and the enzyme levels of glutamate-oxalacetate-transaminase (GOT) in the liver.

[3] = test system: several pathogenic bacteria; assay: Radial diffusion assay, all tested strains; format: cell-based
Protocol: (§1) Antimicrobial activity was analyzed by radial diffusion assay. Log-phase bacteria were cultivated for up to 18 h in TSB (TSB, Becton Dickinson, USA), washed and diluted to 4 × 10^6 CFU in 10 ml agar. Bacteria were incubated in 10 ml of 10 mM sodium phosphate, pH 7.4, containing 0.3 mg/ml of TSB powder and 1% (w/v) low EEO-agarose (AppliChem). 1 µg of each lipopeptide was pipetted into punched wells in a final volume of 4 µl and diffused into the gel for 3 h at 37 °C. After that, a nutrient-rich gel with 6% TSB (w/v) and 1% agarose in 10 mM sodium phosphate buffer was poured on top of the first gel and incubated for up to 24 h at 37 °C. Then the diameter of inhibition zones was measured.

S. aureus NCTC8325 [4] = assay: Bacterial pore formation (SYTO9/propidium iodide); format: cell-based; details: 37.5 µM Pam-3 (4x MIC), 10 min; Syto9 and propidium iodide
Protocol: Pore formation was monitored using the Live/Dead BacLight bacterial viability kit (Molecular Probes)[60]. […] Samples were taken after 10 min of peptide treatment, then 0.2 µl of a 1:1 mixture of SYTO9 and propidium iodide (PI) was added and further incubated for 15 min at RT in the dark. […] Images were acquired with an Orca Flash 4.0 V2 camera (Hamamatsu), C Plan-Apo 63x/1.4 Oil DIC and alpha Plan-Apochromat 100x/1.46 Oil Ph3 objectives (Zeiss) and processed using the Zen software package (Zeiss).

S. Typhimurium = format: cell-based; details: radial diffusion assay
Protocol: as §1

S. aureus ATCC 25923 = format: cell-based; details: for Fold change in MIC: relative to MIC of first passage, Mean
Protocol: Development of resistance to the peptides was assessed with S. aureus and S. Typhimurium. […] Bacteria were cultured overnight at 37 °C at 150 rpm in TSB. Bacteria were washed twice with 10 mM sodium phosphate buffer containing 1% (w/v) TSB. […] After incubation, 100 µl of 6% TSB (w/v) was added and plates incubated in a humidified atmosphere for 21 h at 37 °C and 150 rpm.
The MIC, the lowest concentration of peptide/antibiotic that caused a lack of visible bacterial growth, was determined for each bacterial species. […] This was repeated for 25 passages.

[5] = histology, animals with signs of pathology/total, treated twice with 250 µg orally, within 24 h
[6] = one day after 2 x 125 µg orally, N = 4
[7] = one day after 2 x 250 µg orally, N = 6

## CCCCCCCCCCCCCCCC(=O)NCCOCCOCC(=O)N[C@@H](CCCNC(=N)N)C(=O)NCC(=O)N[C@@H](CCCCN)C(=O)N[C@@H](C)C(=O)N[C@@H](CCCCN)C(=O)N[C@@H](CS)C(=O)N[C@@H](CS)C(=O)N[C@@H](CCCCN)C(=O)O [Pam-3] ({Palmitoyl-AEEA}-RGKAKCCK-OH; C-terminus assumed)
S. aureus NCTC8325 [1]
  effect on membrane potential (in words): breakdown of the membrane potential in a concentration-dependent manner
[2]; histology and serum markers 24 h after two doses of 250 µg orally
  acute toxicity (in words): did not reveal acute toxicity
[2]; [5]
  Cecum and Colon: Dysplasia: 0/6
  Cecum and Colon: Inflammation: 0/6
  Duodenum-Jejunum: Dysplasia: 0/6
  Duodenum-Jejunum: Inflammation: 0/6
  Jejunum-Ileum: Dysplasia: 2/6
  Jejunum-Ileum: Inflammation: 0/6
  Jejunum-Ileum: Paneth cells: 0/6
  Kidney: Glomeruli: 0/6
  Kidney: Papilla: 0/6
  Kidney: Pelvis: 0/6
  Kidney: Tubuli: 3/6
  Liver: Anisocaryosis: 0/6
  Liver: Double nucleated cells: 0/6
  Liver: Fatty change: 0/6
  Liver: Glycogen: 0/6
  Liver: Hematopoiesis: 0/6
  Liver: Lymphocytic aggregates: 0/6
  Stomach: Glycogen: 0/6
  Stomach: Lymphocytic aggregates: 0/6
[2]; oral Pam-3, Fig. 4a
  bodyweight (in words): no alterations in bodyweight
[2]; oral Pam-3, Fig. 4b
  serum glutamic oxaloacetic transaminase vs PBS (in words): no significant differences
[2]; oral Pam-3, Fig. 4c
  serum creatinine vs PBS (in words): no significant differences
[2]; [6]
  Creatinin: 0.7 mg/dL and 0.3 mg/dL
  GOT: 56 U/I and 83 U/I and 71 U/I and 622 U/I
[2]; [7]
  Creatinin: 0.4 mg/dL and 0.5 mg/dL and 0.3 mg/dL and 0.2 mg/dL and 0.6 mg/dL
  GOT: 271 U/I and 163 U/I and 240 U/I and 280 U/I and 771 U/I and 499 U/I
[2]; treated twice with 125 µg orally, N = 5
  Bodyweight loss: 98.6047% and 99.4355% and 98.663% and 99.2814% and 97.8588%
[2]; treated twice with 250 µg orally, N = 6
  Bodyweight loss: 97.5318% and 97.8707% and 99.133% and 99.7222% and 99.016% and 101.461%
[3]
  antimicrobial activity (in words): potent inhibition
S. aureus NCTC8325 [4]
  pore formation (in words): strong influx of PI
S. Typhimurium
  inhibition of S. Typhimurium growth (in words): consistently inhibited
S. aureus ATCC 25923; Day (passage) 0
  Fold change in MIC: 1.0
S. aureus ATCC 25923; Day (passage) 1
  Fold change in MIC: 0.7
S. aureus ATCC 25923; Day (passage) 2
  Fold change in MIC: 1.0
S. aureus ATCC 25923; Day (passage) 3
  Fold change in MIC: 1.0
S. aureus ATCC 25923; Day (passage) 4
  Fold change in MIC: 1.3
S. aureus ATCC 25923; Day (passage) 5
  Fold change in MIC: 1.2
S. aureus ATCC 25923; Day (passage) 6
  Fold change in MIC: 0.8
S. aureus ATCC 25923; Day (passage) 7
  Fold change in MIC: 0.7
S. aureus ATCC 25923; Day (passage) 8
  Fold change in MIC: 0.8
S. aureus ATCC 25923; Day (passage) 9
  Fold change in MIC: 1.0
S. aureus ATCC 25923; Day (passage) 10
  Fold change in MIC: 1.3
S. aureus ATCC 25923; Day (passage) 11
  Fold change in MIC: 1.3
S. aureus ATCC 25923; Day (passage) 12
  Fold change in MIC: 1.2
S. aureus ATCC 25923; Day (passage) 13
  Fold change in MIC: 1.2
S. aureus ATCC 25923; Day (passage) 14
  Fold change in MIC: 1.3
S. aureus ATCC 25923; Day (passage) 15
  Fold change in MIC: 1.2
S. aureus ATCC 25923; Day (passage) 16
  Fold change in MIC: 0.7
S. aureus ATCC 25923; Day (passage) 17
  Fold change in MIC: 1.3
S. aureus ATCC 25923; Day (passage) 18
  Fold change in MIC: 0.7
S. aureus ATCC 25923; Day (passage) 19
  Fold change in MIC: 1.8
S. aureus ATCC 25923; Day (passage) 20
  Fold change in MIC: 1.2
S. aureus ATCC 25923; Day (passage) 21
  Fold change in MIC: 1.0
S. aureus ATCC 25923; Day (passage) 22
  Fold change in MIC: 1.3
S. aureus ATCC 25923; Day (passage) 23
  Fold change in MIC: 1.2
S. aureus ATCC 25923; Day (passage) 24
  Fold change in MIC: 1.3
S. aureus ATCC 25923; Day (passage) 25
  Fold change in MIC: 1.2
S. aureus ATCC 25923; sub-inhibitory concentrations for 25 passages
  increase in MIC (in words): no significant increase
